Results as given in PubChem BioAssay AID1996.
Values after ≈ are worked out from the molar mass of the structure shown.

details: buffer; pH 7.4; 200.0 µM

Compound	solubility kinetic
CCOCCCNC(=O)CN1C(=O)c2cccc3cccc1c23	> 46.9 µg/mL
CCCC(=O)Nc1cc2c3c(c1)C(C)C(=O)N3CCC2 (stereo not drawn)	38 µg/mL (≈ 140 µM)
Cl.N[C@@H](CCl)C(=O)O	> 24 µg/mL
O=C1C=C(N2CCCCCC2)C(=O)N1c1ccc(Cl)cc1	8.9 µg/mL (≈ 29.2 µM)
O=C(CSC(=S)N1CCOCC1)c1cc2ccccc2oc1=O	7.4 µg/mL (≈ 21.2 µM)
CCCCC(CC)C1OCC(CN2CCCCC2)O1 (stereo not drawn)	4.3 µg/mL (≈ 16 µM)
CC1CCCC(C)N1C(=O)CN1c2cccc3cccc(c23)S1(=O)=O (stereo not drawn)	6.7 µg/mL (≈ 18.7 µM)
Cn1c(=O)[nH]c2c(Cl)nccc21	> 27.5 µg/mL
Cc1cccc(C)c1OCC1CNC(=O)O1 (stereo not drawn)	24.8 µg/mL (≈ 112 µM)
Cc1ccc(NS(=O)(=O)c2ccc3c(c2)CCC(=O)N3)cc1	> 47.5 µg/mL
COc1ccc(-c2nc(=S)c3c(n2Cc2cccnc2)CC(C)(C)OC3)cc1	> 59 µg/mL
O=C1NCCCCC1NS(=O)(=O)c1ccc(F)c(F)c1 (stereo not drawn)	43.1 µg/mL (≈ 142 µM)
CCCc1cnc(N2CCN(C(=O)c3c(-c4ccccc4)noc3C)CC2)nc1	40.7 µg/mL (≈ 104 µM)
COc1ccc(CNCCC2(C(C)C)CCOC(C)(C)C2)cc1 (stereo not drawn)	> 47.9 µg/mL
Cc1nc(C2COc3ccccc3O2)sc1C(=O)O (stereo not drawn)	35 µg/mL (≈ 126 µM)
CC1CCCCC1NC(=O)Cn1cnc2sccc2c1=O (stereo not drawn)	> 45.8 µg/mL
O=S(=O)(Nc1ccc(F)cc1)c1ccc(S(=O)(=O)N2CCOCC2)cc1	12.6 µg/mL (≈ 31.5 µM)
Cc1ccc(Nc2cc(C)c(O)c(C)c2)cc1	10.5 µg/mL (≈ 46.2 µM)
Cc1ccccc1CC(=O)NCC1CCCCC1	12.9 µg/mL (≈ 52.6 µM)
N#C/C(=C\c1cc([N+](=O)[O-])ccc1Cl)C(N)=O	33.5 µg/mL (≈ 133 µM)
CCN1C(=O)CC(C(=O)OC)=C1C	24.6 µg/mL (≈ 134 µM)
Cc1ccc(OCCNS(=O)(=O)c2ccc(Cl)cc2)cc1	5.6 µg/mL (≈ 17.2 µM)
COc1cccc(Nc2nc(N)c([N+](=O)[O-])c(NCc3ccco3)n2)c1	1.2 µg/mL (≈ 3.37 µM)

Compound	solubility kinetic
Cc1cccc(C)c1CC(=O)N1CCOCC1	34.6 µg/mL (≈ 148 µM)
Cc1nc2sc3c(c2c(=O)[nH]1)CCCCC3	2 µg/mL (≈ 8.54 µM)
Cc1cccc(C(=O)Oc2cc(C)[nH]c(=O)c2[N+](=O)[O-])c1	> 43.2 µg/mL
Cc1ccc(NS(=O)(=O)c2cccc([N+](=O)[O-])c2)nc1	14.6 µg/mL (≈ 49.8 µM)
Cc1cnc(NC(=O)c2ccncc2)s1	30.2 µg/mL (≈ 138 µM)
COc1ccc(NC(=S)NCCCN2CCCC2)cc1	> 44 µg/mL
Cc1cc(Cl)ccc1NC(=O)CN1CCCC1	> 37.9 µg/mL
O=[N+]([O-])c1ccc(N2CCOCC2)cc1O	> 33.6 µg/mL
C=CCN1CCN(C(=O)CSc2ccccc2)CC1	> 41.5 µg/mL
NC(=O)C1CCN(C(=O)c2ccc(Oc3cc(Cl)cc(Cl)c3)o2)CC1	55.4 µg/mL (≈ 145 µM)
Cc1c(C)c2ccc(OCC(=O)Nc3ccccn3)cc2oc1=O	< 0.3 µg/mL
Clc1cc2nc[nH]c2cc1Cl	> 28.1 µg/mL
COc1ccc(NC2CC(=O)N(c3cccc([N+](=O)[O-])c3)C2=O)cc1 (stereo not drawn)	> 51.2 µg/mL
O=C(COC(=O)c1ccc(O)cc1)NC1CCCC1	> 39.5 µg/mL
COc1ccc(C(C)=O)cc1CN1CC=C(c2ccccc2)CC1	28.8 µg/mL (≈ 89.6 µM)
CC(C)C(=O)NC(=O)COC(=O)/C=C/c1cccs1	21.6 µg/mL (≈ 76.8 µM)
Cc1nn(C)cc1C(=O)Nc1ccc2c(c1)OCCO2	> 41 µg/mL
COc1cc(C)c(COc2ncnc3ccccc23)cc1OC	40.1 µg/mL (≈ 129 µM)
Cc1cccc(C)c1NC(=S)N(CCN(C)C)Cc1cccs1	45.8 µg/mL (≈ 132 µM)
CC(C)n1cc(/C=C2/NC(=O)NC2=O)c2ccccc21	0.7 µg/mL (≈ 2.6 µM)
O=C(Nc1ccc(Br)cc1)C1CC(c2c(F)cccc2Cl)=NO1 (stereo not drawn)	6.7 µg/mL (≈ 16.8 µM)
Cc1[nH]c2ccc(C(=O)NCCCN3CCOCC3)cc2c1C	> 47.3 µg/mL
O=C(c1ccccc1)N1CCN(S(=O)(=O)N2CCOCC2)CC1	46 µg/mL (≈ 136 µM)

Compound	solubility kinetic
COC(=O)C1CCN(C(=O)CN2C(=O)NC(CC(C)C)C2=O)CC1 (stereo not drawn)	> 50.9 µg/mL
O=C1/C(=C/c2ccccc2Cl)N2CCC1CC2	22.8 µg/mL (≈ 92 µM)
CC(C)C(C)NC(=O)CN1C(=O)NC2(CCc3ccccc32)C1=O (stereo not drawn)	> 49.4 µg/mL
CC1=NCCN1CCNC(=O)Nc1ccc(F)cc1	> 39.6 µg/mL
O=C(CN1CCOCC1)NNC(=O)c1ccc([N+](=O)[O-])cc1	> 46.2 µg/mL
CC(C)(C)c1csc(NC(=O)c2ccc(Br)o2)n1	16 µg/mL (≈ 48.6 µM)
NC(=O)c1cc(S(=O)(=O)NCc2ccc(F)cc2)cs1	47 µg/mL (≈ 150 µM)
Cc1cccnc1Nc1ncnc(N)c1[N+](=O)[O-]	36.3 µg/mL (≈ 147 µM)
COC(=O)CSC(=S)N1CCCC(C)C1 (stereo not drawn)	> 37.1 µg/mL
Cn1c(=O)c2c(nc3n2CCS3)n(C)c1=O	> 35.7 µg/mL
O=C(OCC(=O)N1CCCCCC1)c1cccc(Cl)c1	> 44.4 µg/mL
CCC(C)c1ccc(NC(=O)C2CC3CCC2C3)cc1 (stereo not drawn)	1.3 µg/mL (≈ 4.79 µM)
CCNC(=O)Cn1cc(C(F)(F)F)cc(Cl)c1=O	> 42.4 µg/mL
CCc1ccc(N2CC(C(=O)OCC(=O)NC3CC3)CC2=O)cc1 (stereo not drawn)	> 49.6 µg/mL
S=C(NCC1CCCO1)NC12CC3CC(CC(C3)C1)C2 (stereo not drawn)	4 µg/mL (≈ 13.6 µM)
COCCCn1c(=O)c2sccc2n(Cc2ccc(C)cc2)c1=O	< 0.4 µg/mL
CC1Cc2ccccc2N1CC(=O)NC(=O)NC1CCCCC1 (stereo not drawn)	24.6 µg/mL (≈ 78 µM)
Cc1cc(C(=O)NC2CCCCCCC2)ccc1[N+](=O)[O-]	1.1 µg/mL (≈ 3.79 µM)
O=C(COc1nncc2ccccc12)NCC(F)(F)F	> 42.8 µg/mL
Cl.NCCOc1ccccc1OCCN	> 40.4 µg/mL
COCc1cc(=O)[nH]c(-c2ccccc2OC(F)(F)F)n1	> 45 µg/mL
CCOC(=O)C(=O)Nc1cc(C)on1	> 29.7 µg/mL
S=C(Nc1ccc(Cl)c(Cl)c1)N1CCCC1	3.3 µg/mL (≈ 12 µM)

Now from value to compound:

solubility kinetic	Compound
< 0.2 µg/mL	N#Cc1cc2cc3ccccc3nc2n2c(=O)c3ccccc3nc12
2 µg/mL (≈ 7.45 µM)	Cc1cc(C)cc(NC(=O)N(C)Cc2ccccc2)c1
24.6 µg/mL (≈ 134 µM)	c1ccc(NCc2ccccn2)cc1
> 55 µg/mL	Cc1ccc(C)c(NC(=O)CN(C)C(=O)CC2OC(=O)c3ccccc32)c1 (stereo not drawn)
2 µg/mL (≈ 7.37 µM)	O=[N+]([O-])c1ccc2c(c1)[nH]c(=S)n2-c1ccccc1
> 65.3 µg/mL	COCC(=O)Nc1ccc(N2CCOCC2)c(S(=O)(=O)Nc2ccccc2OC)c1
51.6 µg/mL (≈ 118 µM)	O=S(=O)(Nc1ccccc1F)c1cccc(NC(=S)NCCN2CCOCC2)c1
19.7 µg/mL (≈ 65.8 µM)	COCc1nc2oc3ccccc3c(=O)c2cc1C(=O)OC
14.4 µg/mL (≈ 52.3 µM)	COc1ccccc1C(=O)CSc1cccc[n+]1[O-]
> 38.3 µg/mL	Cc1ccc(NC(=O)NCc2ccccn2)c(C)c1
< 0.6 µg/mL	O=C(O)c1ccccc1OCc1nc2ccccc2s1
> 52.7 µg/mL	Cc1ccc2nc(-c3ccccc3NC(=O)CCC(=O)O)c(=O)[nH]c2c1
> 42.2 µg/mL	O=C1OCC(c2ccccc2)=C1c1ccccc1[N+](=O)[O-]
> 43.6 µg/mL	COCc1cc(=O)[nH]c(SCC(=O)c2ccccc2)n1
> 44.1 µg/mL	NC(=O)c1ccccc1NS(=O)(=O)c1ccc(F)cc1
0.6 µg/mL (≈ 1.88 µM)	COc1ccc(C/C(N)=N/OC(=O)c2ccc(Cl)cc2)cc1
8.2 µg/mL (≈ 20.3 µM)	COc1ccccc1CNC(=O)COC(=O)c1ccc(C(=O)c2ccccc2)cc1
40.1 µg/mL (≈ 142 µM)	CN(c1ccccc1)S(=O)(=O)c1ccc(Cl)nc1
0.9 µg/mL (≈ 2.38 µM)	CC(=O)c1cccc(NC(=O)CSc2nc(C3CC3)nc3ccccc23)c1
4.4 µg/mL (≈ 17.1 µM)	CC1=C(C)C(=O)N(C(C)CCc2ccccc2)C1=O (stereo not drawn)
> 46.6 µg/mL	NC(=O)c1ccccc1OCC(=O)N1CCc2ccccc2C1
> 44.5 µg/mL	OC(CN1CCN(Cc2ccccc2)CC1)c1ccccc1 (stereo not drawn)
> 54.8 µg/mL	COc1cccc(C(=O)N(Cc2cccs2)C2CCS(=O)(=O)C2)c1 (stereo not drawn)
0.4 µg/mL (≈ 1.48 µM)	COc1ccccc1NC(=O)NC(=O)c1ccccc1
2.3 µg/mL (≈ 7.46 µM)	COc1ccc2c(=O)c(C(=O)NCc3ccccc3)c[nH]c2c1
9.5 µg/mL (≈ 36.1 µM)	Cc1cccc(NC(=O)c2ccc([N+](=O)[O-])s2)n1
6.8 µg/mL (≈ 20.1 µM)	CCC(C(=O)NC(C)c1ccccc1)C(=O)NC(C)c1ccccc1 (stereo not drawn)

solubility kinetic	Compound
< 0.2 µg/mL	CCOC(=O)C1=C(C)Nc2nc3ccccc3n2C1c1ccc(O)cc1 (stereo not drawn)
> 40.1 µg/mL	O=C(Nc1ccc(Cl)c(Cl)c1)c1cccnc1
31.4 µg/mL (≈ 101 µM)	COc1ccc2c(CC(=O)Nc3ccccc3OC)coc2c1
14.8 µg/mL (≈ 47.3 µM)	CC(OC(=O)c1cnc2ccccc2n1)c1ccccc1Cl (stereo not drawn)
> 36.3 µg/mL	Cc1cccc(NC(=O)c2cc[n+]([O-])cc2)c1C
2.2 µg/mL (≈ 8.55 µM)	Cc1ccc(NC(=O)NCc2cccn2C)cc1C
30.2 µg/mL (≈ 114 µM)	O=C(Cc1c(F)cccc1Cl)Nc1ccccn1
> 57.1 µg/mL	COc1ccc(Cl)cc1NS(=O)(=O)c1cccc(C(=O)NC2CC2)c1
50.1 µg/mL (≈ 149 µM)	COc1ccc(NC(=O)COC(=O)Cc2ccsc2)c(OC)c1
> 45 µg/mL	O=C(COC(=O)c1ccncc1)Nc1ccc2c(c1)OCO2
> 36.5 µg/mL	Cc1ccc(CCC(=O)NCc2ccccc2)o1
2 µg/mL (≈ 4.01 µM)	CC(C)C(NC(=O)c1ccc(Cl)cc1Cl)C(=O)N1CCN(S(=O)(=O)c2ccccc2)CC1 (stereo not drawn)
0.6 µg/mL (≈ 2.46 µM)	c1ccc(NC2=Nc3cccc4cccc2c34)cc1
39.6 µg/mL (≈ 118 µM)	COc1ccc(C(=O)NCc2cc(C)nc3ccccc23)cc1OC
5.6 µg/mL (≈ 17.6 µM)	COc1cccc(-c2cc(C(=O)NC3CC3)c3ccccc3n2)c1
> 43.7 µg/mL	COC(=O)C(c1ccccc1)C1(O)CC(C)N(C)CC1C (stereo not drawn)
39.8 µg/mL (≈ 137 µM)	O=S(=O)(Nc1ccccc1)c1cccc2nsnc12
4 µg/mL (≈ 11.5 µM)	O=C(Nc1ccc2c(c1)OCCO2)c1cccnc1Oc1ccccc1
0.9 µg/mL (≈ 2.34 µM)	O=C(NC(=S)NCc1cccnc1)c1cc(Br)ccc1Cl
> 44.6 µg/mL	Cc1ccc(C(=O)NCCCNC(=O)c2ccccn2)cc1
47.3 µg/mL (≈ 135 µM)	CC(C)NC(=O)c1ccc(CN2CCC(Cc3ccccc3)CC2)cc1
12.3 µg/mL (≈ 42.5 µM)	O=C1C2C3C=CC(C3)C2C(=O)N1c1ccc2ccccc2c1 (stereo not drawn)
> 38.7 µg/mL	CC(=O)N1Cc2[nH]c3ccccc3c2CC1C(=O)O (stereo not drawn)
44.6 µg/mL (≈ 148 µM)	NC(=O)c1ccc(NC(=O)CCC(=O)c2cccs2)cc1
1 µg/mL (≈ 3.19 µM)	CCCOc1ccc(C(=O)Nc2ccc3c(c2)OCCO3)cc1
1.1 µg/mL (≈ 3.95 µM)	O=C(Nc1nc2ccc(F)cc2s1)c1cccs1
57.6 µg/mL (≈ 142 µM)	O=C(CCCOc1ccccc1)Nc1cccc(S(=O)(=O)N2CCOCC2)c1
